Experimental data as given in article PMC5884652, “New antimicrobial peptide kills drug-resistant pathogens without detectable resistance” (Oncotarget, 2018).
Read-outs that look alike come from different tables or passages of the source. Ends that are not written are not given here.

Columns and labels:
[1] = tested on: E. coli ATCC 25922; assay type: cell-based, Escherichia coli
Source text: (§1) The method for peptide synthesis has been described in detail previously. E. coli ATCC 25922 (LB media), P. aeruginosa ATCC 15692 (NB+0.5% NaCl media), Listeria monocytogenes ATCC 3710 (LB media), Staphylococcus epidermidis ATCC 12228 (LB media), and S. aureus ATCC 29213 (TSB media) were obtained from the American Type Culture Collection (Manassas, VA, USA). Bacillus subtilis KCTC 1998 (LB media), Salmonella typhimurium KCTC 1926 (NB media), and Proteus vulgaris KCTC 2433 (NB media) were obtained from the Korean Collection for Type Cultures (Jeollabuk-do, Korea). E. coli CCARM 1238 was received from the Culture Collection of Antibiotic Resistant Microbes at Seoul Women’s University, Korea. Drug-resistant P. aeruginosa 3543, 3904, 3547, and 4007 and S. aureus 3126, 0027, 5157, 1635, 4761, 5159, 3359, 2122, 1630, 1870, 3511, 5156, and 3518 were resistant strains isolated from patients with otitis media in a Chonnam National University’s hospital.
(§2) The antibacterial activities of AMPs (melittin, clavaspirin, and its analogs) and conventional antibiotic drugs (erythromycin, gentamicin, ampicillin, and piperacidin) were determined using microdilution assays. Bacterial cells were cultured at 37° C in appropriate culture media at pH 5.5 or pH 7.4 until collection during the mid-log phase and suspended in 10 mM sodium phosphate buffer (pH 5.5 or pH 7.4) supplemented with 10% culture medium. Thereafter, 2× serial dilutions of each peptide (0.25–128 μM) or antibiotic (0.25–256 μM) were added to sterile 96-well plates, and aliquots of cell suspension (5 × 10^5 colony forming units (cfu)/mL) were seeded into each well. The samples were then incubated at 37° C for 24 h. At the end of the incubation, the minimum inhibitory concentrations (MICs) of the peptides were determined using a VERSA Max microplate reader (Molecular Devices Co., Sunnyvale, CA, USA) at a wavelength of 600 nm. […] MIC values were calculated as the mean of 3 independent experiments conducted in triplicate.

[2] = tested on: HaCaT (human keratinocyte) cells; test: Cytotoxicity, MTT assay; assay type: cell-based; conditions: DMEM containing 10% FBS and 1% PS, 24 h, 37° C; for EC50: read-out: EC50 (effective concentration in HaCaT cells)
Experimental: To examine the cytotoxic effects of the peptides, HaCaT (human keratinocyte) cells were cultured in Dulbecco’s modified Eagle’s medium (DMEM) supplemented with antibiotics (100 U/ml penicillin and 100 μg/ml streptomycin) and 10% fetal calf serum at 37° C in a humidified chamber under a 5% CO2 atmosphere. Growth inhibition was evaluated using 3-(4, 5-dimethylthizol-2-yl)-2, 5-diphenyltetrazolium bromide (MTT) assays to measure cell viability. After cells were seeded into a 96-well plate at a density of 2 × 10^4/well and incubated for 24 h, twofold serial dilutions of each peptide in DMEM were added to the wells, and the cells were incubated for an additional 24 h at 37° C. Thereafter, 10 μl of MTT (5 mg/ml) was added to each well, and the plate was incubated for 4 h. The supernatants were then removed, and 50 μl of DMSO was added to each well to dissolve any remaining precipitate. Finally, the absorbance at 570 nm was measured using a microtiter reader.

[3] = tested on: Bacillus subtilis KCTC 1998; assay type: cell-based
Source text: as §1, §2

[4] = tested on: Staphylococcus epidermidis ATCC 12228; assay type: cell-based
Source text: as §1, §2

[5] = tested on: Listeria monocytogenes ATCC 3710; assay type: cell-based
Source text: as §1, §2

[6] = tested on: E. coli; test: SYTOX-Green uptake; assay type: cell-based; conditions: E. coli 2 × 10^7 cfu/mL, 1 μM SYTOX-Green, 10 mM sodium phosphate buffer, pH 5.5 and pH 7.4
[7] = tested on: E. coli CCARM1238; test: microbe, parasite or virus in culture; assay type: cell-based, Escherichia coli; conditions: pH 7.4 (II); 10 mM sodium phosphate buffer, 10% LB; 37° C, 24 h; mean of 3 experiments
Source text: as §1, §2

[8] = tested on: P. aeruginosa 3904; test: microbe, parasite or virus in culture; assay type: cell-based, Pseudomonas aeruginosa; conditions: pH 7.4 (II); 10 mM sodium phosphate buffer, 10% LB; 37° C, 24 h; mean of 3 experiments
Source text: as §1, §2

[9] = tested on: P. aeruginosa 4007; test: microbe, parasite or virus in culture; assay type: cell-based, Pseudomonas aeruginosa; conditions: pH 7.4 (II); 10 mM sodium phosphate buffer, 10% LB; 37° C, 24 h; mean of 3 experiments
Source text: as §1, §2

[10] = tested on: P. aeruginosa 3543; test: microbe, parasite or virus in culture; assay type: cell-based, Pseudomonas aeruginosa; conditions: pH 7.4 (II); 10 mM sodium phosphate buffer, 10% LB; 37° C, 24 h; mean of 3 experiments
Source text: as §1, §2

[11] = tested on: P. aeruginosa 3547; test: microbe, parasite or virus in culture; assay type: cell-based, Pseudomonas aeruginosa; conditions: pH 7.4 (II); 10 mM sodium phosphate buffer, 10% LB; 37° C, 24 h; mean of 3 experiments
Source text: as §1, §2

[12] = tested on: S. aureus LTA; test: Peptide-LTA binding affinity assay (dansyl polymyxin B); conditions: LTA 9 µg, 2.5 μM dansyl polymyxin B, 5 mM HEPES buffer pH 7.4, peptide 0.4 to 4 μM
Experimental: (§3) Lipoteichoic acid (LTA) and lipopolysaccharide (LPS) binding affinity assays were performed using a Perkin-Elmer LS55 fluorometer (Waltham, MA, USA). S. aureus LTA and E. coli LPS (9 µg) were incubated with 2.5 μM dansyl-polymyxin B in 5 mM HEPES buffer for 5–10 min at pH 7.4. The CSP-4 peptide was added in 0.4 μM increments from 0.4 to 4 μM. The increase in fluorescence intensity was assessed using a spectrofluorometer at an excitation wavelength of 340 nm and an emission wavelength of 482 nm (Perkin-Elmer LS55).

[13] = tested on: E. coli; test: Membrane depolarization (DiSC3-5); assay type: cell-based; conditions: ex 622 nm, em 670 nm
Experimental: The membrane depolarizing activities of the peptides were evaluated in E. coli cells using the membrane potential-sensitive fluorescent dye DiSC3-5 (3,3′-dipropylthiadicarbocyanine iodide). Two batches of bacterial cells (experiment and control) were grown to mid-log phase at 37° C, harvested, and washed three times with buffer A (20 mM glucose, 5 mM HEPES [pH 7.2]). The cells were then resuspended to an A600 of 0.05 in buffer A containing 0.1 M KCl, after which DiSC3-5 was added to a final concentration of […] and the mixture was incubated for 60 min until the fluorescence level stabilized. The peptides were then added to bacterial suspensions, and the changes in fluorescence were continuously recorded (excitation at 622 nm and emission at 670 nm) for 30 min [36].

[14] = tested on: E. coli LPS; test: Peptide-LPS binding affinity assay (dansyl polymyxin B); conditions: LPS 9 µg, 2.5 μM dansyl polymyxin B, 5 mM HEPES buffer pH 7.4, peptide 0.4 to 4 μM
Experimental: as §3

[15] = pH 5.5 (I), 10 mM sodium phosphate buffer, 10% LB, 37° C, 24 h, mean of 3 experiments
[16] = pH 7.4 (II), 10 mM sodium phosphate buffer, 10% LB, 37° C, 24 h, mean of 3 experiments

With FKRFIGSVKHGIGHLVHHIGVAL-NH2 [CSP-3] the “MIC, E. coli” value ([1]; ATCC 25922, 24 h, pH 5.5) was 2 µM, the “MIC, E. coli” value ([1]; ATCC 25922, 24 h, pH 7.4) was 4 µM and the “EC10 (effective concentration in HaCaT cells)” value [2] was 84. For the same substance, the EC50 [2] was 188 µM, the “MIC, B. subtilis” value ([3]; KCTC 1998, 24 h, pH 5.5) was 8 µM and the “MIC, B. subtilis” value ([3]; KCTC 1998, 24 h, pH 7.4) was 16 µM. For the same substance, the “MIC, S. epidermidis” value ([4]; ATCC 12228, 24 h, pH 5.5) was 4 µM, the “MIC, S. epidermidis” value ([4]; ATCC 12228, 24 h, pH 7.4) was 8 µM and the “MIC, L. monocytogenes” value ([5]; ATCC 3710, 24 h, pH 5.5) was 16 µM. The “MIC, L. monocytogenes” value ([5]; ATCC 3710, 24 h, pH 7.4) was 8 µM.

For FLRFIGSVKHGKGHLVHHIGVAL-NH2 [CSP-4], the “MIC, E. coli” value [1, 15] was 2 µM, the “MIC, E. coli” value [1, 16] was 4 µM and the “EC10 (effective concentration in HaCaT cells)” value [2] was > 400. For the same substance, the EC50 [2] was > 400 µM, the “Membrane disruption (SYTOX-Green fluorescence)” value [6] was “dose-dependent increase in fluorescence intensity” and the MIC [7] was 2 µM. The MIC [8] was 2 µM, the MIC [9] was 2 µM and the MIC [10] was 4 µM. The MIC [11] was 4 µM, the “Binding to LTA (fluorescence of dansyl polymyxin B)” value [12] was “dose-dependent increase in fluorescence intensity” and the “MIC, B. subtilis” value [3, 15] was 4 µM. The “MIC, B. subtilis” value [3, 16] was 4 µM, the “MIC, S. epidermidis” value [4, 15] was 4 µM and the “MIC, S. epidermidis” value [4, 16] was 8 µM. For the same substance, the “MIC, L. monocytogenes” value [5, 15] was 4 µM, the “MIC, L. monocytogenes” value [5, 16] was 4 µM and the “Membrane depolarization (DisC3–5 fluorescence)” value [13] was “dose-dependent disruption and resultant depolarization”. For the same substance, the “Binding to LPS (fluorescence of dansyl polymyxin B)” value [14] was “dose-dependent increase in fluorescence intensity”.
